Experimental data taken from BigSolDB 2.1.

c1ccc2c(c1)ccc1ccccc12
solubility (mole fraction)
Conditions	293 K	303 K	313 K	323 K
in 2,2,4-trimethylpentane	0.019	0.036	0.0874	0.138
in n-heptane	0.0154	0.0247	0.036	0.0519
in toluene	0.461	0.499	0.577	0.604
